Data taken from patent US9550976B2, “Methods for compact aggregation of dermal cells” (THE TRUSTEES OF COLUMBIA UNIVERSITY IN THE CITY OF NEW YORK, priority 2006, dated 2017).

Experiments:
[1] = tested on: hair follicle morphogenesis in embryonic skin cultures; test: Mouse embryonic skin organ culture, effects of reduced HA on hair follicle morphogenesis; type: cell-based; conditions: for in vivo skin stage to which the cultured skin / follicles correspond: after 72 hr in culture of 14.5 dpc skin, histology and syndecan-1 pattern
Description: To study the effects of HA misexpression in the development of a HF, an embryonic skin organ culture model was utilized. To assess how representative this model was for investigating the role of HA distribution in vivo, the expression of CD44 and HA in the cultured embryonic skin was first investigated. Embryonic skin cultures were established using pre-hair follicle initiation (14.5 dpc) skin and were incubated for 72 hrs. The cultured skin hair placodes became visible after 24 hr in culture. After 72 hr, skins were removed from culture, sectioned, and the expression of both HA and CD44 were assessed (FIG. 19). The dermal condensate was negative for HA staining (red) while expressing CD44 (green). Expression of both proteins in the HF of the cultured backskin was virtually indiscernible from that of 16.5 dpc back skin in vivo (FIG. 19). The effects of HA synthesis downregulation of hair follicle morphogenesis was investigated. Embryonic skin was cultured for 72 hrs in the presence of BSA (control) or one of two HAS inhibitors, leflunomide (Lef) (50 nM) or 4-methylumbelliferone (30 mM). In the presence of BSA, CD44 was localized predominantly to the dermal condensate, while HA remained absent from the dermal condensate (FIG. 20). […] To ascertain whether this reduction was due to an actual inhibitory effect of Lef on hair follicle morphogenesis and development, cultured skin from all treatments and control groups were enzymatically split and the separated epidermis inverted to allow the visualization of the developing epidermal hair germs. […] To explore the effects of a global degradation of HA protein on hair follicle morphogenesis within the skin cultures, embryonic skin was cultured for 72 hrs in the presence of either BSA (control) or hyaluronanase (HAase) (25 units/ml). […] Following 72 hrs in culture, embryonic skin from the four treatments described above were cryo-embedded, sectioned, and stained with hematoxylin and eosin (H&E) for histological study. […] After 72 hr in culture, follicles corresponded to those found in 14.5 dpc skin in vivo, both histologically and in their syndecan-1 expression patterns (FIG. 22).

hair follicle formation = conditions: whole skin organ culture; as previously shown (Kashiwagi 1997); cited from earlier work
[2] = Lef 50 nM, 4-methylumbelliferone 30 mM
[3] = embryonic skin cultured 72 hrs, Lef 50 nM, 4-methylumbelliferone 30 mM, HAase 25 units/ml
[4] = embryonic skin cultured 72 hrs, Lef 50 nM, 4-methylumbelliferone 30 mM, HAase 25 units/ml, vs BSA control

Row | Compound | in vivo skin stage to which the cultured skin / follicles correspond [1, 2] [dpc] | Syndecan-1 expression (marker of the dermal condensation) ([1]; embryonic skin cultured 72 hrs, 4-methylumbelliferone 30 mM, HAase 25 units/ml) | histology (H&E) of cultured skin [1, 3] | number of visible follicles on the surface of the skin [1, 4] | size and number of epidermal hair germs on the inverted, enzymatically separated epidermis ([1]; embryonic skin cultured 72 hrs, Lef 50 nM, HAase 25 units/ml, vs BSA control) | hair follicle formation (hair follicle formation)
1 | Cc1cc(=O)oc2cc(O)ccc12 [4-methylumbelliferone] | 16.5 | normal hair follicle development | indistinguishable from the control skin | no effect on the number of visible follicles | – | –
2 | Cc1oncc1C(=O)Nc1ccc(C(F)(F)F)cc1 [Lef, leflunomide] | 14.5 | – | inhibition of follicle development | reduction in the number of visible follicle on the surface of the skin | smaller and sparser than those of the control | –
3 | EGF: growth factor used to inhibit hair follicle formation in skin organ culture (NSYPGCPSSYDGYCLNGGVCMHIESLDSYTCNCVIGYSGDRCQTRDLRWWELR; UniProt P01132 977-1029, looked up) | – | – | – | – | – | completely inhibited
